Reference: patent publication US8354443B2, “Cyclopropane indolinone derivatives” (Hoffmann-La Roche Inc., priority 2009, dated 2013)

Test system: recombinant AMPK proteins (α1β1γ1, α2β1γ1, α1(1-335), α1(1-394) or α2(1-394))
Experiment: Scintillation Proximity Assay (AMPK activation)
Type: biochemical, human
Settings: effective concentration of activator for 50% of maximal enzyme activity; 2 hr at 30° C.; AMPK form not specified
Summary of the method: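 Pre-phosphorylated recombinant human AMPK (α1β1γ1, α2β1γ1, α1(1-335), α1(1-394) or α2(1-394)), 50 nM, incubated 2 hr at 30° C with 2 μM biotin-SAMS, 2 μM ATP plus [γ-33P]ATP, pH 7.5, and varying activator. Product detected by streptavidin SPA beads; EC50 is activator concentration giving 50% of maximal enzyme activity.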

Row | EC50 | Structure (SMILES)
1 | 1370 nM | CNC(=O)c1cccc(CN2C(=O)[C@@]3(C[C@H]3c3ccc(Cl)cc3)c3ccccc32)c1 (racemic) [Example 110, (1R,2S) and (1S,2R)-3-((2-(4-chlorophenyl)-2′-oxospiro[cyclopropane-1,3′-indoline]-1′-yl)methyl)-N-methylbenzamide]
2 | 2020 nM | O=C(O)c1cccc(CN2C(=O)[C@]3(C[C@@H]3c3cccc(F)c3)c3ccccc32)c1 (racemic) [Example 10, (1S,2R) and (1R,2S)-3-((2-(3-fluorophenyl)-2′-oxospiro[cyclopropane-1,3′-indoline]-1′-yl)methyl)benzoic acid]
3 | 2570 nM | O=C(O)c1cccc(CN2C(=O)[C@@]3(C[C@H]3c3ccc(Cl)cc3)c3ccccc32)c1 (racemic) [Example 1, (1R,2S) and (1S,2R)-3-((2-(4-chlorophenyl)-2′-oxospiro[cyclopropane-1,3′-indoline]-1′-yl)methyl)benzoic acid]
4 | 1660 nM | COc1cccc([C@H]2C[C@]23C(=O)N(Cc2cccc(C(=O)O)c2)c2ccccc23)c1 (racemic) [Example 18, (1S,2R) and (1R,2S)-3-((2-(3-methoxyphenyl)-2′-oxospiro[cyclopropane-1,3′-indoline]-1′-yl)methyl)benzoic acid]
5 | 2980 nM | O=C(O)c1cccc(CN2C(=O)[C@]3(C[C@@H]3c3cccc(Cl)c3)c3ccccc32)c1 (racemic) [Example 3, (1S,2R) and (1R,2S)-3-((2-(3-chlorophenyl)-2′-oxospiro[cyclopropane-1,3′-indoline]-1′-yl)methyl)benzoic acid]
6 | 1190 nM | O=C(O)c1cccc(CN2C(=O)[C@]3(C[C@H]3c3ccccc3F)c3ccccc32)c1 (mixture of isomers) [Example 9, (1S,2S) and (1R,2R)-3-((2-(2-fluorophenyl)-2′-oxospiro[cyclopropane-1,3′-indoline]-1′-yl)methyl)benzoic acid]
7 | 11200 nM | O=C(O)c1cccc(CN2C(=O)[C@]3(C[C@@H]3c3ccc(Cl)cc3)c3cc(F)ccc32)c1 (racemic) [Example 22, (1S,2R) and (1R,2S)-3-((2-(4-chlorophenyl)-5′-fluoro-2′-oxospiro[cyclopropane-1,3′-indoline]-1′-yl)methyl)benzoic acid]
8 | 2040 nM | O=C(O)c1cccc(CN2C(=O)[C@]3(C[C@H]3c3cccc(F)c3)c3ccccc32)c1 (racemic) [Example 11, (1S,2S) and (1R,2R)-3-((2-(3-fluorophenyl)-2′-oxospiro[cyclopropane-1,3′-indoline]-1′-yl)methyl)benzoic acid]

The next lines start with the molecule.

Row | Structure (SMILES) | EC50
9 | O=C(O)c1cccc(CN2C(=O)[C@]3(C[C@@H]3c3ccc(Cl)cc3)c3ccccc32)n1 (racemic) [Example 68, (1S,2R) and (1R,2S)-6-((2-(4-chlorophenyl)-2′-oxospiro[cyclopropane-1,3′-indoline]-1′-yl)methyl)picolinic acid] | 2800 nM
10 | O=C(O)c1cc(N2CCCC2=O)cc(N2C(=O)[C@]3(C[C@H]3c3ccc(Cl)cc3)c3ccccc32)c1 (racemic) [Example 94, (1S,2S) and (1R,2R)-3-(2-(4-chlorophenyl)-2′-oxospiro[cyclopropane-1,3′-indoline]-1′-yl)-5-(2-oxopyrrolidin-1-yl)benzoic acid] | 1500 nM
11 | O=C1N(CCNCCCN2CCOCC2)c2ccccc2[C@@]12C[C@@H]2c1ccc(Cl)cc1 (racemic) [Example 127, (1S,2R) and (1R,2S)-2-(4-chlorophenyl)-1′-(2-(3-morpholinopropylamino)ethyl) spiro[cyclopropane-1,3′-indolin]-2′-one] | 4500 nM
12 | O=C(NCCCN1CCOCC1)c1cccc(CN2C(=O)[C@@]3(C[C@H]3c3ccc(Cl)cc3)c3ccccc32)c1 (racemic) [Example 112, (1R,2S) and (1S,2R)-3-((2-(4-chlorophenyl)-2′-oxospiro[cyclopropane-1,3′-indoline]-1′-yl)methyl)-N-(3-morpholinopropyl)benzamide] | 1270 nM
13 | CC1CN(CCNCCN2C(=O)[C@]3(C[C@@H]3c3ccc(Cl)cc3)c3ccccc32)CC(C)O1 (mixture of isomers) [Example 130, (1S,2R) and (1R,2S)-2-(4-chlorophenyl)-1′-(2-(2-(2,6-dimethylmorpholino)ethylamino)ethyl) Spiro[cyclopropane-1,3′-indolin]-2′-one] | 1100 nM
14 | O=C1N(c2c[nH]cn2)c2ccccc2[C@@]12C[C@@H]2c1ccc(Cl)cc1 (racemic) [Example 131, (1S,2R) and (1R,2S)-2-(4-chlorophenyl)-1′-(1H-imidazol-4-yl)spiro[cyclopropane-1,3′-indolin]-2′-one] | 3270 nM
15 | O=C(c1cccc(N2C(=O)[C@]3(C[C@H]3c3ccc(Cl)cc3)c3ccccc32)c1)N1CCOCC1 (racemic) [Example 85, (1S,2S) and (1R,2R)-2-(4-chlorophenyl)-1′-(3-(morpholine-4-carbonyl)phenyl)spiro [cyclopropane-1,3′-indolin]-2′-one] | 950 nM
16 | CCN(CC)CCN1C(=O)[C@]2(C[C@@H]2c2ccc(Cl)cc2)c2ccccc21 (racemic) [Example 71, (1S,2R) and (1R,2S)-2-(4-chlorophenyl)-1′-(2-(diethylamino)ethyl)spiro[cyclopropane-1,3′-indolin]-2′-one] | 3200 nM
17 | CN(C)CCN1CCN(C(=O)c2cccc(CN3C(=O)[C@@]4(C[C@H]4c4ccc(Cl)cc4)c4ccccc43)c2)CC1 (racemic) [Example 113, (1R,2S) and (1S,2R)-2-(4-chlorophenyl)-1′-(3-(4-(2-(dimethylamino)ethyl)piperazine-1-carbonyl)benzyl)spiro[cyclopropane-1,3′-indolin]-2′-one] | 1840 nM
18 | O=C(O)c1cccc(N2C(=O)[C@]3(C[C@@H]3c3ccc(Cl)cc3)c3ccccc32)c1 (racemic) [Example 83, (1S,2R) and (1R,2S)-3-(2-(4-chlorophenyl)-2′-oxospiro[cyclopropane-1,3′-indoline]-1′-yl)benzoic acid] | 2590 nM
19 | CC(C)N1CCN(CCN2C(=O)[C@]3(C[C@@H]3c3ccc(Cl)cc3)c3ccccc32)CC1 (racemic) [Example 74, (1S,2R) and (1R,2S)-2-(4-chlorophenyl)-1′-(2-(4-isopropylpiperazin-1-yl)ethyl)spiro [cyclopropane-1,3′-indolin]-2′-one] | 8800 nM
20 | O=C1N(CCN2CCN(c3ccncc3)CC2)c2ccccc2[C@@]12C[C@@H]2c1ccc(Cl)cc1 (racemic) [Example 129, (1S,2R) and (1R,2S)-2-(4-chlorophenyl)-1′-(2-(4-(pyridin-4-yl)piperazin-1-yl)ethyl) spiro[cyclopropane-1,3′-indolin]-2′-one] | 1680 nM
21 | O=C1N(Cc2cccnc2)c2ccccc2[C@@]12C[C@@H]2c1ccc(Cl)cc1 (racemic) [Example 79, (1S,2R) and (2R,1S)-2-(4-chlorophenyl)-1′-(pyridin-3-ylmethyl)spiro[cyclopropane-1,3′-indolin]-2′-one] | 2600 nM
22 | O=C(O)c1cc(N2CCOC2=O)cc(N2C(=O)[C@]3(C[C@H]3c3ccc(Cl)cc3)c3ccccc32)c1 (racemic) [Example 92, (1S,2S) and (1R,2R)-3-(2-(4-chlorophenyl)-2′-oxospiro[cyclopropane-1,3′-indoline]-1′-yl)-5-(2-oxooxazolidin-3-yl)benzoic acid] | 870 nM
